Test results taken from patent US20030228373A1, “Composition including a triamine and a biocide and a method for inhibiting the growth of microorganisms with the same” (Lonza Inc., priority 2002, published 2003).

Tested on: microorganisms in the process water
Assay: Microbial count reduction in paper mill process water (3 h contact at 37° C., TGE agar plate count); synergism by the Kull method
Type: cell-based
Conditions: for Colony forming units per milliliter of sample (CFU/ml) after overnight incubation / Logarithmic Growth Reduction relative to the Control Experiment [log (CFU/ml of control plate) − log (CFU/ml of experimental plate)]: process water pH 7.0, 3 hours at 37° C.; for concentration alone required to yield a thousand fold reduction in the microorganism count of the process water (Qa, Qb): substance alone
Method: Samples of process water having a pH of 7.0 obtained from a paper mill were supplemented with Lonzabac® 12.100 and Barquat® MB-80 at the concentrations indicated in Table 1 below. Barquat® MB-80 is an 80% aqueous solution of N-(C12-C16 alkyl)-N-benzyl-N,N-dimethylammonium chloride available from Lonza Inc. of Fair Lawn, N.J. Lonzabac® 12.100 is a 100% N,N-bis(3-aminopropyl)-dodecylamine liquid available from Lonza Inc. The samples were immediately mixed and incubated for 3 hours at 37° C. with agitation in an orbital shaker. After 3 hours, tryptone glucose extract (TGE) agar plates were inoculated with each sample and grown overnight at 37° C. The number of colonies on each plate was then counted.
This experiment was repeated with a sample of process water that was not treated with Lonzabac® 12.100 or Barquat® MB-80 as a control.
Synergism for the solutions in Table 1 against the microorganisms in the process water was calculated by the methods described in C. E. Kull et al., “Mixtures of Quaternary Ammonium Compounds and Long-chain Fatty Acids as Antifungal Agents”, Applied Microbiology, 9:538-541 (1961). The synergism value (QA/Qa+QB/Qb) was determined. QA is the concentration of Lonzabac® 12.100 (in ppm) in a Lonzabac® 12.100/Barquat® MB-80 mixture, which yielded a thousand fold reduction in the microorganism count of the process water. Qa is the concentration of Lonzabac® 12.100 alone (in ppm) required to yield a thousand fold reduction in the microorganism count of the process water. QB is the concentration of Barquat® MB-80 (in ppm) in a Lonzabac® 12.100/Barquat® MB-80 mixture, which yielded a thousand fold reduction in the microorganism count of the process water. Qb is the concentration of Barquat® MB-80 alone (in ppm) required to yield a thousand fold reduction in the microorganism count of the process water.
The procedure in Example 1 was repeated substituting peracetic acid for Barquat® MB-80 with the solutions in Table 2 below.

SMILES: CCCCCCCCCCCCN(CCCN)CCCN [Lonzabac ® 12.100, N,N-bis(3-aminopropyl)-dodecylamine]
- Colony forming units per milliliter of sample (CFU/ml) after overnight incubation (Lonzabac 12.100 15 ppm alone): 6.55 × 10^7 CFU/ml
- Logarithmic Growth Reduction relative to the Control Experiment [log (CFU/ml of control plate) − log (CFU/ml of experimental plate)] (Lonzabac 12.100 15 ppm alone): 0.7
- Colony forming units per milliliter of sample (CFU/ml) after overnight incubation (Lonzabac 12.100 30 ppm alone): 6.40 × 10^6 CFU/ml
- Logarithmic Growth Reduction relative to the Control Experiment [log (CFU/ml of control plate) − log (CFU/ml of experimental plate)] (Lonzabac 12.100 30 ppm alone): 1.7
- Colony forming units per milliliter of sample (CFU/ml) after overnight incubation (Lonzabac 12.100 60 ppm alone): 3.25 × 10^5 CFU/ml
- Logarithmic Growth Reduction relative to the Control Experiment [log (CFU/ml of control plate) − log (CFU/ml of experimental plate)] (Lonzabac 12.100 60 ppm alone): 3.0
- Colony forming units per milliliter of sample (CFU/ml) after overnight incubation (Lonzabac 12.100 90 ppm alone): 1.00 × 10^5 CFU/ml
- Logarithmic Growth Reduction relative to the Control Experiment [log (CFU/ml of control plate) − log (CFU/ml of experimental plate)] (Lonzabac 12.100 90 ppm alone): 3.5
- concentration alone required to yield a thousand fold reduction in the microorganism count of the process water (Qa, Qb): 60 ppm

SMILES: CC(=O)OO [Peracetic Acid, peracetic acid, reference compound]
- Colony forming units per milliliter of sample (CFU/ml) after overnight incubation (Peracetic Acid 20 ppm alone): 1.43 × 10^7 CFU/ml
- Logarithmic Growth Reduction relative to the Control Experiment [log (CFU/ml of control plate) − log (CFU/ml of experimental plate)] (Peracetic Acid 20 ppm alone): 1.3
- Colony forming units per milliliter of sample (CFU/ml) after overnight incubation (Peracetic Acid 50 ppm alone): 1.00 × 10^5 CFU/ml
- Logarithmic Growth Reduction relative to the Control Experiment [log (CFU/ml of control plate) − log (CFU/ml of experimental plate)] (Peracetic Acid 50 ppm alone): 3.2
- concentration alone required to yield a thousand fold reduction in the microorganism count of the process water (Qa, Qb): 50 ppm
